Measured values from PubChem BioAssay (NCI).
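GI50 = concentration required for 50% inhibition of growth. The concentration for full growth arrest is given as TGI.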

Tests used:
Experiment in all cases: NCI anticancer screen, dose series, 384-well format; in the data active means GI50 below about 0.43 µM; inactive means the rest
[1] = tested on: A549 NSCLC
[2] = tested on: HL-60(TB) leukemia
[3] = tested on: SK-MEL-2 melanoma
[4] = tested on: SF-539 CNS
[5] = tested on: SNB-75 CNS
[6] = tested on: MCF7 breast
[7] = tested on: RXF 393 renal
[8] = tested on: T-47D breast
[9] = tested on: SK-MEL-28 melanoma
[10] = tested on: SW-620 colon
[11] = tested on: KM12 colon
[12] = tested on: SK-OV-3 ovarian
[13] = tested on: UO-31 renal
[14] = tested on: TK-10 renal
[15] = tested on: NCI-H460 NSCLC
[16] = tested on: HCT-116 colon
[17] = tested on: HT29 colon
[18] = tested on: MDA-MB-435 melanoma
[19] = tested on: BT-549 breast
[20] = tested on: SK-MEL-5 melanoma
[21] = tested on: OVCAR-4 ovarian
[22] = tested on: NCI-H23 lung
[23] = tested on: MDA-MB-468 breast
[24] = tested on: EKVX NSCLC
[25] = tested on: NCI-H322M lung
[26] = tested on: UACC-257 melanoma
[27] = tested on: HCT-15 colon
[28] = tested on: SF-295 CNS
[29] = tested on: A498 renal
[30] = tested on: K-562 leukemia
[31] = tested on: UACC-62 melanoma
[32] = tested on: OVCAR-5 ovarian
[33] = tested on: NCI-H226 lung
[34] = tested on: OVCAR-8 ovarian
[35] = tested on: CAKI-1 renal
[36] = tested on: ACHN renal
[37] = tested on: SNB-19 CNS
[38] = tested on: SF-268 CNS
[39] = tested on: HOP-62 NSCLC
[40] = tested on: HOP-92 NSCLC
[41] = tested on: OVCAR-3 ovarian
[42] = tested on: COLO 205 colon
[43] = tested on: M14 melanoma
[44] = tested on: MDA-MB-231 breast
[45] = tested on: MOLT-4 leukemia
[46] = tested on: SN12C renal
[47] = tested on: NCI-H522 lung
[48] = tested on: DU-145 prostate
[49] = tested on: U251 glioblastoma
[50] = tested on: IGROV1 ovarian
[51] = tested on: HS 578T breast
[52] = tested on: PC-3 prostate
[53] = tested on: MALME-3M melanoma
[54] = tested on: SR leukemia
[55] = tested on: 786-0 renal

CCc1cc2c(c(OCC(F)(F)F)c(C(=O)NC3CCN(C(=O)CO)CC3)n2C)c(=O)n1CC(=O)c1ccccc1
> 100 µM: TGI [1] | TGI [3] | TGI [4] | TGI [5] | TGI [6] | TGI [8] | TGI [9] | TGI [10] | TGI [11] | TGI [12] | TGI [14] | TGI [15] | TGI [16] | TGI [17] | TGI [18] | TGI [19] | TGI [20] | TGI [21] | TGI [22] | TGI [24] | TGI [25] | TGI [26] | TGI [27] | TGI [29] | TGI [30] | TGI [31] | TGI [32] | TGI [33] | TGI [34] | TGI [35] | TGI [36] | TGI [37] | TGI [38] | TGI [39] | TGI [40] | TGI [41] | TGI [42] | TGI [43] | TGI [44] | TGI [46] | TGI [47] | TGI [48] | TGI [49] | TGI [50] | TGI [51] | TGI [52] | TGI [53]
12.4 µM: TGI [7]
31.4 µM: TGI [54]
inactive: GI50 [1] 46.8 µM | GI50 [2] 25.3 µM | GI50 [3] 30.1 µM | GI50 [4] 37.8 µM | GI50 [5] 54.9 µM | GI50 [6] 9.23 µM | GI50 [7] 1.91 µM | GI50 [8] 29.9 µM | GI50 [9] 38.9 µM | GI50 [10] 57 µM | GI50 [11] 42.4 µM | GI50 [12] 45.8 µM | GI50 [13] 19.7 µM | GI50 [14] 33.9 µM | GI50 [15] 27.5 µM | GI50 [16] 35.6 µM | GI50 [17] 41.7 µM | GI50 [18] > 100 µM | GI50 [19] 57.9 µM | GI50 [20] 23.2 µM | GI50 [21] 37.1 µM | GI50 [22] 79.9 µM | GI50 [23] 20.6 µM | GI50 [24] 40.3 µM | GI50 [25] 72.6 µM | GI50 [26] 68.8 µM | GI50 [27] 61.9 µM | GI50 [28] 24.9 µM | GI50 [29] 33.6 µM | GI50 [30] 33.6 µM | GI50 [31] 32.6 µM | GI50 [32] > 100 µM | GI50 [33] 22.4 µM | GI50 [34] 54.2 µM | GI50 [35] 39.6 µM | GI50 [36] 31.6 µM | GI50 [37] > 100 µM | GI50 [38] 68.8 µM | GI50 [39] 28.2 µM | GI50 [40] 58.6 µM | GI50 [41] 40 µM | GI50 [42] > 100 µM | GI50 [43] > 100 µM | GI50 [44] 37.7 µM | GI50 [45] 18.3 µM | GI50 [46] > 100 µM | GI50 [47] 69.8 µM | GI50 [48] 82.5 µM | GI50 [49] 52.6 µM | GI50 [50] 58.2 µM | GI50 [51] 37.7 µM | GI50 [52] 42.1 µM | GI50 [53] 73.9 µM | GI50 [54] 17.3 µM | GI50 [55] 18.4 µM
98.7 µM: TGI [28]
51.6 µM: TGI [13]
36.6 µM: TGI [55]
79.2 µM: TGI [23]
40.7 µM: TGI [2]
34.6 µM: TGI [45]
